The values below come from US20230257366A1, “SULFUR-CONTAINING ISOINDOLINE DERIVATIVE, AND PREPARATION METHOD THEREFOR AND MEDICAL USE THEREOF” (JIANGSU HENGRUI PHARMACEUTICALS CO., LTD., priority 2020, published 2023).

The experiment has as its system NCI-H929 cells. Description: NCI-H929 proliferation experiment (CellTiter-Glo, 5 days). The settings on record: Homo sapiens, 120 h, 5 days incubation, read-out: IC50 values for the inhibition of proliferation of NCI-H929 cells. Type of experiment: cell-based. As for the experimental part:
The following method was used to determine the inhibitory activity of the compounds of the present disclosure on the proliferation of NCI-H929 cells. The experimental method was briefly described as follows.
NCI-H929 cells (ATCC, CRL-9068) were cultured in a complete medium (RPMI 1640 medium (Hyclone, SH30809.01) containing 10% fetal bovine serum (Corning, 35-076-CV) and 0.05 mM 2-mercaptoethanol (Sigma, M3148)). On the first day of the experiment, NCI-H929 cells were seeded in a 96-well plate at a density of 6000 cells/well with a complete medium to form 100 μL of cell suspension per well, and 10 μL of test compound prepared in a complete medium and diluted in a gradient was added to each well. The compound was firstly dissolved in DMSO, with an initial concentration of 10 mM, and then subjected to serial dilution at a 5-fold concentration gradient for a total of 9 concentration points, with a blank control of 100% DMSO. Another 5 μL of the compound dissolved in DMSO was added to 95 μL of complete medium, i.e., the compound was diluted 20-fold with the complete medium. Finally the compound diluted in the complete medium at 10 μL/well was added to the cell suspension, wherein the final concentrations of the compound were 9 concentration points obtained by 5-fold gradient dilution starting from 50 μM. A blank control containing 0.5% DMSO was set. The plate was incubated in a cell incubator at 37° C. with 5% CO2 for 5 days. On the sixth day, the 96-well cell culture plate was taken out, added with a CellTiter-Glo® luminescent cell activity detect reagent (Promega, G7573) at 50 μL/well, left to stand at room temperature for 10 min, and read for the luminescence signal values using a multi-mode microplate reader (PerkinElmer, EnVision 2015). IC50 values for the inhibitory activity of the compounds were calculated using Graphpad Prism software, with the results shown in Table 1.
In general terms: ATP-based viability assays read luminescence as a measure of living cells.
For the molecule `N#Cc1ccc(N2CCC(Sc3c(F)cc(COc4cccc5c4CN([C@H]4CCC(=O)NC4=O)C5=O)cc3F)CC2)c(F)c1` [Compound 12, (S)-4-(4-((4-(((2-(2,6-dioxopiperidin-3-yl)-1-oxoisoindolin-4-yl)oxy)methyl)-2,6-difluorophenyl)thio)piperidin-1-yl)-3-fluorobenzonitrile], the IC50 came to 0.61 nM.

As to `N#Cc1ccc(N2CCC(Sc3ccc(COc4cccc5c4CN([C@H]4CCC(=O)NC4=O)C5=O)cc3Cl)CC2)c(F)c1` [Compound 14, (S)-4-(4-((2-chloro-4-(((2-(2,6-dioxopiperidin-3-yl)-1-oxoisoindolin-4-yl)oxy)methyl)phenyl)thio)piperidin-1-yl)-3-fluorobenzonitrile], the IC50 stood at 0.27 nM.

With `N#Cc1ccc(N2CCC(Sc3ccc(COc4cccc5c4CN([C@H]4CCC(=O)NC4=O)C5=O)c(F)c3F)CC2)c(F)c1` [Compound 10, (S)-4-(4-((4-(((2-(2,6-dioxopiperidin-3-yl)-1-oxoisoindolin-4-yl)oxy)methyl)-2,3-difluorophenyl)thio)piperidin-1-yl)-3-fluorobenzonitrile], the IC50 is 0.18 nM.

`N#Cc1ccc(N2CCC(Sc3ccc(COc4cccc5c4CN(C4CCC(=O)NC4=O)C5=O)cc3)CC2)c(F)c1` (centres unmarked) [Compound 1, 4-(4-((4-(((2-(2,6-dioxopiperidin-3-yl)-1-oxoisoindolin-4-yl)oxy)methyl)phenyl)thio)piperidin-1-yl)-3-fluorobenzonitrile]: the IC50 turned out to be 0.34 nM.

For `N#Cc1ccc(N2CCC(Sc3ccc(COc4cccc5c4CN([C@H]4CCC(=O)NC4=O)C5=O)nc3)CC2)c(F)c1` [Compound 9, (S)-4-(4-((6-(((2-(2,6-dioxopiperidin-3-yl)-1-oxoisoindolin-4-yl)oxy)methyl)pyridin-3-yl)thio)piperidin-1-yl)-3-fluorobenzonitrile], the IC50 was 0.9 nM.

Regarding `N#Cc1ccc(N2CCC(Sc3cc(F)c(COc4cccc5c4CN([C@H]4CCC(=O)NC4=O)C5=O)c(F)c3)CC2)c(F)c1` [Compound 18, (S)-4-(4-((4-(((2-(2,6-dioxopiperidin-3-yl)-1-oxoisoindolin-4-yl)oxy)methyl)-3,5-difluorophenyl)thio)piperidin-1-yl)-3-fluorobenzonitrile], the IC50 came out at 0.34 nM.

In the case of `N#Cc1ccc(N2CCC(Sc3ccc(COc4cc(F)cc5c4CN([C@H]4CCC(=O)NC4=O)C5=O)cn3)CC2)c(F)c1` [Compound 8, (S)-4-(4-((5-(((2-(2,6-dioxopiperidin-3-yl)-6-fluoro-1-oxoisoindolin-4-yl)oxy)methyl)pyridin-2-yl)thio)piperidin-1-yl)-3-fluorobenzonitrile], the IC50 was 0.28 nM.

Turning to `N#Cc1ccc(N2CCC(Sc3ncc(COc4cccc5c4CN([C@H]4CCC(=O)NC4=O)C5=O)cn3)CC2)c(F)c1` [Compound 7, (S)-4-(4-((5-(((2-(2,6-dioxopiperidin-3-yl)-1-oxoisoindolin-4-yl)oxy)methyl)pyrimidin-2-yl)thio)piperidin-1-yl)-3-fluorobenzonitrile], the IC50 came to 0.13 nM.

As for `N#Cc1ccc(N2CCC(Sc3ccc(COc4cccc5c4CN([C@H]4CCC(=O)NC4=O)C5=O)c(F)c3)CC2)c(F)c1` [Compound 5, (S)-4-(4-((4-(((2-(2,6-dioxopiperidin-3-yl)-1-oxoisoindolin-4-yl)oxy)methyl)-3-fluorophenyl)thio)piperidin-1-yl)-3-fluorobenzonitrile], the IC50 is 0.08 nM.

For the molecule `Cc1nc(SC2CCN(c3ccc(C#N)cc3F)CC2)ccc1COc1cccc2c1CN([C@H]1CCC(=O)NC1=O)C2=O` [Compound 13, (S)-4-(4-((5-(((2-(2,6-dioxopiperidin-3-yl)-1-oxoisoindolin-4-yl)oxy)methyl)-6-methylpyridin-2-yl)thio)piperidin-1-yl)-3-fluorobenzonitrile], the IC50 turned out to be 1.78 nM.

Consider `N#Cc1ccc(N2CCC(Sc3ccc(COc4cccc5c4C(=O)N(C4CCC(=O)NC4=O)C5=O)cc3)CC2)c(F)c1` (centres unmarked) [Compound 2, 4-(4-((4-(((2-(2,6-dioxopiperidin-3-yl)-1,3-dioxoisoindolin-4-yl)oxy)methyl)phenyl)thio)piperidin-1-yl)-3-fluorobenzonitrile], for which the IC50 stood at 4.36 nM.

On to `N#Cc1ccc(N2CC(Sc3ccc(COc4cccc5c4CN([C@H]4CCC(=O)NC4=O)C5=O)cc3)C2)c(F)c1` [Compound 16, (S)-4-(3-((4-(((2-(2,6-dioxopiperidin-3-yl)-1-oxoisoindolin-4-yl)oxy)methyl)phenyl)thio)azetidin-1-yl)-3-fluorobenzonitrile], for which the IC50 came to 1.13 nM.

For the molecule `N#Cc1ccc(N2CCC(Sc3ccc(COc4cccc5c4CN([C@H]4CCC(=O)NC4=O)C5=O)cn3)C2)c(F)c1` (stereo partly drawn) [Compound 15, 4-(3-((5-(((2-((S)-2,6-dioxopiperidin-3-yl)-1-oxoisoindolin-4-yl)oxy)methyl)pyridin-2-yl)thio)pyrrolidin-1-yl)-3-fluorobenzonitrile], the IC50 came out at 0.75 nM.

In the case of `N#Cc1ccc(N2CCC(Sc3ccc(COc4cccc5c4CN([C@H]4CCC(=O)NC4=O)C5=O)cc3F)CC2)c(F)c1` [Compound 4, (S)-4-(4-((4-(((2-(2,6-dioxopiperidin-3-yl)-1-oxoisoindolin-4-yl)oxy)methyl)-2-fluorophenyl)thio)piperidin-1-yl)-3-fluorobenzonitrile], the IC50 is 0.17 nM.

For the molecule `N#Cc1ccc(N2CCC(Sc3ccc(COc4cccc5c4CN([C@H]4CCC(=O)NC4=O)C5=O)c(F)n3)CC2)c(F)c1` [Compound 17, (S)-4-(4-((5-(((2-(2,6-dioxopiperidin-3-yl)-1-oxoisoindolin-4-yl)oxy)methyl)-6-fluoropyridin-2-yl)thio)piperidin-1-yl)-3-fluorobenzonitrile], the IC50 was found to be 0.21 nM.

In the case of `N#Cc1ccc(N2CCC(Sc3cc(F)c(COc4cccc5c4CN([C@H]4CCC(=O)NC4=O)C5=O)cc3F)CC2)c(F)c1` [Compound 11, (S)-4-(4-((4-(((2-(2,6-dioxopiperidin-3-yl)-1-oxoisoindolin-4-yl)oxy)methyl)-2,5-difluorophenyl)thio)piperidin-1-yl)-3-fluorobenzonitrile], the IC50 came out at 0.22 nM.

On to `N#Cc1ccc(N2CCC(Sc3ccc(COc4cccc5c4CN([C@H]4CCC(=O)NC4=O)C5=O)cc3)CC2)c(F)c1` [Compound 3, (S)-4-(4-((4-(((2-(2,6-dioxopiperidin-3-yl)-1-oxoisoindolin-4-yl)oxy)methyl)phenyl)thio)piperidin-1-yl)-3-fluorobenzonitrile], for which the IC50 was determined as 0.1 nM.
